Measurements reported in patent US7811352B2, “Fertilizer compositions and methods of using” (priority 2005, dated 2010).
Marks after values point to notes of the source that are not given here.

Tests used:
Assay type in all cases: in vivo
[1] = tested on: green height, creeping bentgrass; test: Color rating of green height creeping bentgrass after fertilization (Example 4); settings: about two weeks after application
Description: In this Example, the efficacy of fertilizers on green height, creeping bentgrass was examined. Fertilizer compositions according to several embodiments of the present disclosure were prepared and compared to the commercial fertilizer products, urea 46-0-0 (granular) fertilizer, Lebanon fertilizer 21-0-12 (granular, commercially available from Lebanon Seaboard Corporation, Lebanon, Pa.) and Milorganite 6-2-0 (granular, commercially available from Milorganite, Milwaukee, Wis.). The fertilizer compositions were applied to the turf grass prior to winter dormancy of the turf at a rate equivalent to supplying about 1.0 pounds of nitrogen (N) per 1000 square feet. Each of the fertilizer compositions were applied at substantially equal rates of pounds (lbs) of nitrogen (N) per 1000 square feet. Table 1 illustrates the response of green height (i.e., the height of grass on golf course green), creeping bentgrass to fertilization using various exemplary fertilizers of the present invention, taken about two weeks after application of the fertilizer. The letters in the Color and Injury columns correspond to Duncan's Multiple Range Test. Numbers (means) in a column followed by the same letter are not statistically different at P=0.05.

[2] = tested on: ultra-dwarf Bermuda grass; test: Turfgrass quality and color ratings, ultra-dwarf Bermuda grass greens (Example 11); parameters: key: 1-10 scale: 10 = dark green, 6 = initially acceptable, 1 = dead/brown; settings: scale 1-10
Description: In this Example, the effect of a fertilizer comprising lysine on warm season turfgrass growth was examined. The effects of lysine (HCl) and LIQUID LYSINE on a common type of golf course greens quality turfgrass (ultra-dwarf Bermuda grass) were compared with those of urea and Milorganite.
Twelve fertilizer treatments comprising three concentrations of each fertilizer composition (Milorganite (N—P—K, 6-2-0), urea (N—P—K, 46-0-0), LIQUID LYSINE (N—P—K, 10-2-1), and lysine (HCl) (N—P—K, 15-2-1)) were prepared and applied to 3 replications of ultra-dwarf Bermuda grass. The lysine (HCl) was dissolved in water prior to application. Each fertilizer treatment was applied in concentrations of 0.125 lb N/1000 ft^2/week, 0.25 lb N/1000 ft^2/week and 0.75 lb N/1000 ft^2/week. The urea, LIQUID LYSINE and lysine (HCl) were applied as foliar liquids, while Milorganite was applied as a granular fertilizer. Plot size was 1 m×1 m set up as a randomized complete block. Plots were mowed at 0.125 inches before fertilizer application. Irrigation (0.15 inch) was applied following application. Plots were rated for turfgrass quality and color (scale of 1-10 where 10=dark green turf, 1=dead/brown turf, and 6=initially acceptable turf) and phytotoxicity (scale of 0-5, where 5=worst, and 2=minimally objectionable) throughout the study period. Quality, color, and phytotoxicity were measured on 2 days before application (day −2) and day 2, day 5, day 15 and day 21 after application. All data was subject to statistical analysis and significant means were determined. Average turfgrass quality ratings for the treatments are presented in Table 12 and the quality results for application rates of 0.25 lb N/1000 ft^2/week are graphically presented in FIG. 6.

[3] = tested on: Bermuda grass; test: Phytotoxicity (% burn), Bermuda grass golf course fairways (Example 13)
Description: In this Example, the effect of a fertilizer comprising lysine on turfgrass growth was examined. The effects of lysine (HCl) and LIQUID LYSINE on a common type of golf course fairway quality turfgrass (Bermuda green) were compared with those of CoRoN® brand fertilizer.
Six fertilizer treatments comprising two concentrations of each fertilizer composition (Coron® (N—P—K, 14-2-14), LIQUID LYSINE (N—P—K, 10-2-1), and lysine (HCl) (N—P—K, 15-2-1)) were prepared and applied to 3 replications of Bermuda grass for use on golf course fairways. The lysine (HCl) was applied as a granular using a Scotts 2 foot drop spreader on a setting of 4.5. The solutions of LIQUID LYSINE and Coran were applied using a Birchmeier backpack sprayer with a 5 foot spray pattern. Each fertilizer treatment was applied in concentrations 3.0 lb N/1000 ft^2 and 6.0 lb N/1000 ft^2. Plot size was 5 ft×60 ft set up as a randomized complete block. Irrigation was applied following application, Plots were rated for turfgrass quality and color (scale of 1-10 where 10=dark green turf 1=dead/brown turf and 6=minimally acceptable turf) and phytotoxicity (% burn) throughout the study period and compared with two untreated plots. […] All data was subject to statistical analysis and significant means were determined.

[4] = Weekly Rate 0.125 lbs N/1000 ft^2, Day 2
[5] = Weekly Rate 0.125 lbs N/1000 ft^2, Day 5
[6] = Weekly Rate 0.125 lbs N/1000 ft^2, Day 15
[7] = Weekly Rate 0.125 lbs N/1000 ft^2, Day 21
[8] = Weekly Rate 0.125 lbs N/1000 ft^2, Day −2 (before application)
[9] = Weekly Rate 0.25 lbs N/1000 ft^2, Day 2
[10] = Weekly Rate 0.25 lbs N/1000 ft^2, Day 5
[11] = Weekly Rate 0.25 lbs N/1000 ft^2, Day 15
[12] = Weekly Rate 0.25 lbs N/1000 ft^2, Day 21
[13] = Weekly Rate 0.25 lbs N/1000 ft^2, Day −2 (before application)
[14] = Weekly Rate 0.75 lbs N/1000 ft^2, Day 2
[15] = Weekly Rate 0.75 lbs N/1000 ft^2, Day 5
[16] = Weekly Rate 0.75 lbs N/1000 ft^2, Day 15
[17] = Weekly Rate 0.75 lbs N/1000 ft^2, Day 21
[18] = Weekly Rate 0.75 lbs N/1000 ft^2, Day −2 (before application)

NC(N)=O [Urea, urea, reference compound]
Color 1-9 (9 = dark green) ([1]; 1.09 Lbs. product/1000 square feet): 6.7^a,b,c
Color 1-9 (9 = dark green) ([1]; 2.17 Lbs. product/1000 square feet): 6.7^a,b,c
Color 1-9 (9 = dark green) ([1]; 6.51 Lbs. product/1000 square feet): 6.0^d,c
Color Rating - Dwarf Bermuda Grass [2, 4]: 7.7ab
Quality Ratings - Dwarf Bermuda Grass [2, 4]: 7.7abc
Color Rating - Dwarf Bermuda Grass [2, 5]: 7.7ab
Quality Ratings - Dwarf Bermuda Grass [2, 5]: 7.5bc
Color Rating - Dwarf Bermuda Grass [2, 6]: 7.2bcd
Quality Ratings - Dwarf Bermuda Grass [2, 6]: 7.0bcd
Color Rating - Dwarf Bermuda Grass [2, 7]: 6.8bc
Quality Ratings - Dwarf Bermuda Grass [2, 7]: 6.7abc
Color Rating - Dwarf Bermuda Grass [2, 8]: 7.0
Quality Ratings - Dwarf Bermuda Grass [2, 8]: 6.5
Color Rating - Dwarf Bermuda Grass [2, 9]: 7.7ab
Quality Ratings - Dwarf Bermuda Grass [2, 9]: 7.7abc
Color Rating - Dwarf Bermuda Grass [2, 10]: 7.3abc
Quality Ratings - Dwarf Bermuda Grass [2, 10]: 7.5bc
Color Rating - Dwarf Bermuda Grass [2, 11]: 7.3bc
Quality Ratings - Dwarf Bermuda Grass [2, 11]: 7.0bcd
Color Rating - Dwarf Bermuda Grass [2, 12]: 7.3ab
Quality Ratings - Dwarf Bermuda Grass [2, 12]: 6.8abc
Color Rating - Dwarf Bermuda Grass [2, 13]: 6.7
Quality Ratings - Dwarf Bermuda Grass [2, 13]: 6.3
Color Rating - Dwarf Bermuda Grass [2, 14]: 7.8a
Quality Ratings - Dwarf Bermuda Grass [2, 14]: 8.2a
Color Rating - Dwarf Bermuda Grass [2, 15]: 7.8a
Quality Ratings - Dwarf Bermuda Grass [2, 15]: 8.3a
Color Rating - Dwarf Bermuda Grass [2, 16]: 8.0a
Quality Ratings - Dwarf Bermuda Grass [2, 16]: 7.5ab
Color Rating - Dwarf Bermuda Grass [2, 17]: 7.8a
Quality Ratings - Dwarf Bermuda Grass [2, 17]: 7.3a
Color Rating - Dwarf Bermuda Grass [2, 18]: 6.8
Quality Ratings - Dwarf Bermuda Grass [2, 18]: 6.3

Cl.NCCCC[C@H](N)C(=O)O [Lys (HCl) 15% N, L-lysine monohydrochloride]
Phytotoxicity (% Burn) - Bermuda grass ([3]; 3.0 lb N/1000 ft^2, Day 7): 11.7bc %
Phytotoxicity (% Burn) - Bermuda grass ([3]; 3.0 lb N/1000 ft^2, Day 12): 6.7b %
Phytotoxicity (% Burn) - Bermuda grass ([3]; 3.0 lb N/1000 ft^2, Day 19): 1.7bc %
Phytotoxicity (% Burn) - Bermuda grass ([3]; 3.0 lb N/1000 ft^2, Day 26): 0.0b %
Phytotoxicity (% Burn) - Bermuda grass ([3]; 3.0 lb N/1000 ft^2, Day 33): 0.0a %
Phytotoxicity (% Burn) - Bermuda grass ([3]; 3.0 lb N/1000 ft^2, Day 40): 0.0c %
Phytotoxicity (% Burn) - Bermuda grass ([3]; 3.0 lb N/1000 ft^2, Day 47): 0.0c %
Phytotoxicity (% Burn) - Bermuda grass ([3]; 6.0 lb N/1000 ft^2, Day 7): 21.7a %
Phytotoxicity (% Burn) - Bermuda grass ([3]; 6.0 lb N/1000 ft^2, Day 12): 11.7a %
Phytotoxicity (% Burn) - Bermuda grass ([3]; 6.0 lb N/1000 ft^2, Day 19): 5.0b %
Phytotoxicity (% Burn) - Bermuda grass ([3]; 6.0 lb N/1000 ft^2, Day 26): 0.0b %
Phytotoxicity (% Burn) - Bermuda grass ([3]; 6.0 lb N/1000 ft^2, Day 33): 0.0a %
Phytotoxicity (% Burn) - Bermuda grass ([3]; 6.0 lb N/1000 ft^2, Day 40): 0.0c %
Phytotoxicity (% Burn) - Bermuda grass ([3]; 6.0 lb N/1000 ft^2, Day 47): 0.0c %
Color Rating - Dwarf Bermuda Grass [2, 4]: 7.2bc
Quality Ratings - Dwarf Bermuda Grass [2, 4]: 7.3bcd
Color Rating - Dwarf Bermuda Grass [2, 5]: 7.0cd
Quality Ratings - Dwarf Bermuda Grass [2, 5]: 6.7de
Color Rating - Dwarf Bermuda Grass [2, 6]: 6.8c-f
Quality Ratings - Dwarf Bermuda Grass [2, 6]: 6.3ef
Color Rating - Dwarf Bermuda Grass [2, 7]: 6.5cd
Quality Ratings - Dwarf Bermuda Grass [2, 7]: 6.2cd
Color Rating - Dwarf Bermuda Grass [2, 8]: 6.8
Quality Ratings - Dwarf Bermuda Grass [2, 8]: 6.8
Color Rating - Dwarf Bermuda Grass [2, 9]: 7.2bc
Quality Ratings - Dwarf Bermuda Grass [2, 9]: 7.2cd
Color Rating - Dwarf Bermuda Grass [2, 10]: 7.2bcd
Quality Ratings - Dwarf Bermuda Grass [2, 10]: 7.2cd
Color Rating - Dwarf Bermuda Grass [2, 11]: 7.2bcd
Quality Ratings - Dwarf Bermuda Grass [2, 11]: 7.2abc
Color Rating - Dwarf Bermuda Grass [2, 12]: 7.3ab
Quality Ratings - Dwarf Bermuda Grass [2, 12]: 7.2ab
Color Rating - Dwarf Bermuda Grass [2, 13]: 7.0
Quality Ratings - Dwarf Bermuda Grass [2, 13]: 6.5
Color Rating - Dwarf Bermuda Grass [2, 14]: 7.3abc
Quality Ratings - Dwarf Bermuda Grass [2, 14]: 7.5abc
Color Rating - Dwarf Bermuda Grass [2, 15]: 7.2bcd
Quality Ratings - Dwarf Bermuda Grass [2, 15]: 7.5bc
Color Rating - Dwarf Bermuda Grass [2, 16]: 7.7ab
Quality Ratings - Dwarf Bermuda Grass [2, 16]: 7.3abc
Color Rating - Dwarf Bermuda Grass [2, 17]: 7.2b
Quality Ratings - Dwarf Bermuda Grass [2, 17]: 6.8abc
Color Rating - Dwarf Bermuda Grass [2, 18]: 6.7
Quality Ratings - Dwarf Bermuda Grass [2, 18]: 6.5
